The results in this text go back to ChEMBL document CHEMBL1201862, “PubChem BioAssay data set” (2004).

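48-hour exposure; five concentrations; linearly interpolated endpoints. GI50: concentration for 50% inhibition of growth.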 The source made the active and inactive calls. Cut-off read from the data, not from the text of the source: active = GI50 up to about 1.1 µM and inactive = higher.

Test systems include HL-60; HOP-92; NCI-H226; SW-620; UACC-62; LOX IMVI; COLO 205; SF-295; K562; CCRF-CEM; SF-268; SK-MEL-2; IGROV-1; SNB-75; 786-0; SK-MEL-5; UO-31; A498.
Experiment in all cases: NCI tumour cell line growth inhibition, 48 h

On to `FC(F)(F)C1(Cl)C(c2ccccc2)=C1c1ccccc1`, for which the GI50 in the assay with HL-60 is 7.73 µM (inactive); in the assay on HOP-92, 14.8 µM (inactive); with NCI-H226, 15.5 µM (inactive); in the assay with SW-620 it was 13.4 µM (inactive); in the assay with UACC-62, 14 µM (inactive); with LOX IMVI, 11.5 µM (inactive). For the same compound, the GI50 is 16.6 µM (inactive) in the assay with COLO 205; 14.9 µM (inactive) in the assay with SF-295; 12.2 µM (inactive) in the assay on K562; 2.49 µM (inactive) in the assay with CCRF-CEM; 16.9 µM (inactive) in the assay with SF-268; 15 µM (inactive) in the assay on SK-MEL-2. Moreover, the GI50 in the assay on IGROV-1 is 15.5 µM (inactive); in the assay with SNB-75, > 10 µM (inactive); with 786-0, 17 µM (inactive); in the assay on SK-MEL-5, 11.7 µM (inactive); with UO-31 it was 17.9 µM (inactive).
As for `COc1ccc(/C(=N/O)c2ccccc2C2=Nc3ccccc3C(NCc3ccccc3)O2)cc1C` (configuration not stated), the GI50 was 34.8 µM (inactive) in the assay with HL-60; 20.5 µM (inactive) with HOP-92; 37 µM (inactive) with NCI-H226; 21.8 µM (inactive) in the assay with SW-620; 23.9 µM (inactive) in the assay with UACC-62; 15.7 µM (inactive) in the assay on LOX IMVI. Besides, the GI50 in the assay on COLO 205 is 17.2 µM (inactive); in the assay with SF-295, 25 µM (inactive); in the assay on K562, 16.7 µM (inactive); in the assay with CCRF-CEM, 19.1 µM (inactive); in the assay on SF-268 it was 42.3 µM (inactive); in the assay on SK-MEL-2, 32.7 µM (inactive). Besides, the GI50 is 40.5 µM (inactive) in the assay with IGROV-1; 24.9 µM (inactive) in the assay on SNB-75; 44.3 µM (inactive) in the assay with 786-0; 17.5 µM (inactive) in the assay with SK-MEL-5; 20.6 µM (inactive) in the assay on UO-31.
As to `O=C(O)C(CS)NCc1c2ccccc2[n+]([O-])c2ccccc12` (configuration not stated), the GI50 in the assay with A498 is 68.7 µM (inactive); in the assay with HL-60, 23.8 µM (inactive); with HOP-92 it was 2.49 µM (inactive); in the assay on NCI-H226 it was 39.9 µM (inactive); in the assay on SW-620 it was 27.4 µM (inactive); in the assay with UACC-62 it was 47.4 µM (inactive). The GI50 is 28.8 µM (inactive) in the assay with LOX IMVI; 78.3 µM (inactive) with COLO 205; 58.1 µM (inactive) in the assay with SF-295; 20.5 µM (inactive) in the assay with K562; 21.5 µM (inactive) in the assay with CCRF-CEM; 23 µM (inactive) in the assay with SF-268. Moreover, the GI50 was 45.6 µM (inactive) with SK-MEL-2; 33.2 µM (inactive) in the assay with IGROV-1; 24 µM (inactive) in the assay on SNB-75; 37.2 µM (inactive) in the assay on 786-0; 30.7 µM (inactive) with SK-MEL-5; 17.5 µM (inactive) with UO-31.
For `CC(C)OP(=O)(OC(C)C)/C(=N/Nc1ccc([N+](=O)[O-])cc1)NNC(=O)c1ccccc1`, the GI50 in the assay on HL-60 was 19.7 µM (inactive); with HOP-92, 24.9 µM (inactive); in the assay on NCI-H226, 19 µM (inactive); in the assay on SW-620, 32.8 µM (inactive); with UACC-62, 20.5 µM (inactive); with LOX IMVI, 21.3 µM (inactive). Further, the GI50 in the assay with COLO 205 was 36.1 µM (inactive); in the assay on K562, 29.8 µM (inactive); with CCRF-CEM it was 17.7 µM (inactive); with SF-268, 36.7 µM (inactive); in the assay with SK-MEL-2 it was 43.2 µM (inactive); with SNB-75, 73.5 µM (inactive). The GI50 in the assay on 786-0 is > 100 µM (inactive); in the assay on SK-MEL-5, 17.4 µM (inactive); in the assay on UO-31, 41.5 µM (inactive).
For the compound `CCOC(=O)/C(=C/c1ccc(OC)cc1)N(CC)CC`, the GI50 is 24.5 µM (inactive) with A498; 52.1 µM (inactive) in the assay with HL-60; > 100 µM (inactive) in the assay on HOP-92; > 100 µM (inactive) in the assay with NCI-H226; > 100 µM (inactive) in the assay on SW-620; > 100 µM (inactive) with UACC-62. The GI50 in the assay on LOX IMVI, in the assay on COLO 205, in the assay with SF-295, in the assay with K562, with CCRF-CEM and with SF-268 was > 100 µM (inactive) in each case. For the same compound, the GI50 in the assay with SK-MEL-2, in the assay on IGROV-1, in the assay on 786-0, in the assay with SK-MEL-5 and with UO-31 was > 100 µM (inactive) each time.
As to `O=C1NC2(CCCC2)C(=O)C12CCCC2`, the GI50 in the assay on A498, in the assay on HL-60, with HOP-92, in the assay on SW-620, with UACC-62 and with LOX IMVI was > 100 µM (inactive) throughout. Further, the GI50 in the assay on COLO 205, in the assay with SF-295, in the assay on K562, in the assay on CCRF-CEM, in the assay on SF-268 and in the assay with SK-MEL-2 was > 100 µM (inactive) throughout. The GI50 with IGROV-1, in the assay on SNB-75, in the assay with 786-0, in the assay with SK-MEL-5 and in the assay on UO-31 was > 100 µM (inactive) in each case.
Turning to `C#CCOCn1cnc2ncnc(N)c21`, the GI50 in the assay with A498, with HOP-92, in the assay with NCI-H226, with SW-620, with UACC-62 and with LOX IMVI was > 100 µM (inactive) throughout. Moreover, the GI50 in the assay on COLO 205, with SF-295, in the assay on K562, in the assay with CCRF-CEM, in the assay on SF-268 and in the assay with SK-MEL-2 was > 100 µM (inactive) in each case. The GI50 in the assay on IGROV-1, in the assay with SNB-75, in the assay on 786-0, in the assay on SK-MEL-5 and in the assay with UO-31 was > 100 µM (inactive) each time.
For the compound `CC(=O)N(C)OC(=O)CC(=O)c1ccccc1`, the GI50 with HL-60, with HOP-92, with NCI-H226, in the assay on SW-620, in the assay on UACC-62 and with LOX IMVI was > 100 µM (inactive) each time. The GI50 in the assay on COLO 205, with SF-295, in the assay with K562, in the assay with CCRF-CEM, in the assay on SF-268 and with IGROV-1 was > 100 µM (inactive) in each case. Moreover, the GI50 with SNB-75 is 76.9 µM (inactive); in the assay on 786-0, > 100 µM (inactive); with SK-MEL-5 it was > 100 µM (inactive); in the assay on UO-31, > 100 µM (inactive).
With `CC(=O)OC1(C#N)CC2OC1C1N=NN(C(=O)OC(C)(C)C)C21` (configuration not stated), the GI50 in the assay with A498 is > 100 µM (inactive); in the assay on HL-60 it was 20.6 µM (inactive); in the assay with HOP-92 it was 20.7 µM (inactive); with NCI-H226, 3.76 µM (inactive); with SW-620, 14.6 µM (inactive); in the assay with UACC-62 it was 18.8 µM (inactive). Also, the GI50 in the assay on LOX IMVI is 17.2 µM (inactive); in the assay with COLO 205 it was > 100 µM (inactive); in the assay with SF-295, > 100 µM (inactive); in the assay with K562, 29.9 µM (inactive); with CCRF-CEM, 15.1 µM (inactive); in the assay on SF-268 it was 61.1 µM (inactive). The GI50 with SK-MEL-2 is 11.2 µM (inactive); with IGROV-1 it was > 31.6 µM (inactive); with SNB-75 it was 70.1 µM (inactive); with 786-0 it was > 100 µM (inactive); in the assay on SK-MEL-5 it was > 31.6 µM (inactive); in the assay with UO-31, > 100 µM (inactive).
As for `COC(=O)N/N=C(\C)C(CN(C)C)C(c1ccccc1)c1c(O)c2ccccc2oc1=O` (configuration not stated), the GI50 in the assay on A498 was > 100 µM (inactive); with HL-60, > 100 µM (inactive); in the assay on HOP-92 it was 27.2 µM (inactive); in the assay on NCI-H226 it was > 100 µM (inactive); in the assay on SW-620, > 100 µM (inactive); in the assay with UACC-62, > 100 µM (inactive). Besides, the GI50 in the assay with LOX IMVI, with COLO 205, in the assay on SF-295, in the assay on K562, in the assay with CCRF-CEM and with SF-268 was > 100 µM (inactive) each time. Also, the GI50 with SK-MEL-2, with IGROV-1, in the assay on SNB-75, in the assay on 786-0, with SK-MEL-5 and in the assay on UO-31 was > 100 µM (inactive) each time.
Take `O=C(CCc1n[nH]c(=S)o1)Nc1ccc(Cl)cc1Cl`: the GI50 with A498 was > 100 µM (inactive); in the assay on HL-60, 76.4 µM (inactive); in the assay on HOP-92 it was 68.7 µM (inactive); with NCI-H226 it was > 100 µM (inactive); in the assay on SW-620, 15.5 µM (inactive); in the assay with UACC-62, > 100 µM (inactive). For the same compound, the GI50 is > 100 µM (inactive) in the assay with COLO 205; > 100 µM (inactive) in the assay with SF-295; 38.7 µM (inactive) with K562; 43.6 µM (inactive) in the assay with CCRF-CEM; > 100 µM (inactive) in the assay with SF-268; > 100 µM (inactive) in the assay with IGROV-1. The GI50 in the assay with SNB-75, with 786-0, in the assay on SK-MEL-5 and with UO-31 was > 100 µM (inactive) each time.
Regarding `COc1cc2c(c(OC)c1OC)-c1ccc(SC)c(=O)cc1[C@@H](NC(=O)c1ccc(OC(C)=O)cc1)CC2`, the GI50 in the assay with A498 was 0.0227 µM (active); in the assay on HL-60 it was 0.0338 µM (active); in the assay on HOP-92, 0.00257 µM (active); with NCI-H226 it was 0.0231 µM (active); in the assay on SW-620, 0.029 µM (active); in the assay on UACC-62, 0.0313 µM (active). Besides, the GI50 with LOX IMVI was 0.0137 µM (active); with COLO 205, 0.0194 µM (active); with SF-295 it was 0.0217 µM (active); in the assay on K562, 0.0301 µM (active); in the assay with CCRF-CEM, 0.0329 µM (active); with SF-268 it was 0.0306 µM (active). Also, the GI50 in the assay with IGROV-1 was 0.0319 µM (active); in the assay on SNB-75, 0.0332 µM (active); in the assay with 786-0, 0.0409 µM (active); in the assay with UO-31, 0.433 µM (active).
